Legend:
pigweed = experiment: Test A pre-/postemergence herbicide test; assay type: in vivo, Amaranthus retroflexus; settings: for Plant response rating, Pigweed: 0 to 100 scale
Procedure, shortened: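 Approximately 10 days after treatment in the greenhouse, plants were compared with untreated controls and given a 0–100 visual injury rating. Applications: preemergence directed soil spray; postemergence on 2–10 cm plants at the one- to two-leaf stage.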

blackgrass = experiment: Test A postemergence herbicide test; assay type: in vivo, Alopecurus myosuroides
Procedure, shortened: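 Injury was rated visually about 10 days after treatment on a 0 (no effect) to 100 (complete control) scale, compared with untreated plants. Test chemicals were sprayed postemergence onto greenhouse plants 2–10 cm high at one to two leaves, grown in a loam–sand blend.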

galium = experiment: Test C pre-/postemergence herbicide test; assay type: in vivo, Galium aparine; settings: Preemergence
Procedure, shortened: (§1)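 Plants grown and held in a greenhouse for 13 to 15 days post-spray, then rated 0–100 by visual comparison with controls. Pre treatments targeted seeds in loam and sand; post treatments targeted 1- to 4-leaf plants in peat-based potting medium.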

foxtail, giant = experiment: Test C pre-/postemergence herbicide test; assay type: in vivo, Setaria faberii; settings: Preemergence
Procedure, shortened: as §1

morningglory = experiment: Test C pre-/postemergence herbicide test; assay type: in vivo, Ipomoea coccinea; settings: Preemergence
Procedure, shortened: as §1

rice = experiment: Test C flooded paddy test; assay type: in vivo, Oryza sativa; settings: Flood
Procedure, shortened: (§2)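 Plants at the 2-leaf stage in pots flooded to 3 cm were treated by applying compound directly to the paddy water, with depth held throughout. After 13 to 15 days in a greenhouse, response was rated visually against controls on a 0 (no effect) to 100 (complete control) scale.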

barnyardgrass = experiment: Test C flooded paddy test; assay type: in vivo, Echinochloa crus-galli; settings: Flood
Procedure, shortened: as §2

[1] = 62 g ai/ha, scale 0 to 100 (0 no effect, 100 complete control)
[2] = 125 g ai/ha, scale 0 to 100 (0 no effect, 100 complete control)
[3] = 31 g ai/ha, scale 0 to 100, 0 is no effect and 100 is complete control
[4] = 125 g ai/ha, scale of 0 to 100 where 0 is no effect and 100 is complete control, 13 to 15 days
[5] = 250 g ai/ha, scale of 0 to 100 where 0 is no effect and 100 is complete control, 13 to 15 days

Q: Which “Plant response rating, Pigweed” value (pigweed; 125 g ai/ha, visual rating, 0 no effect, 100 complete control, approximately 10 days, preemergence) does the source give for O=C1NCC(c2cccc(C(F)F)c2)C1C(=O)Nc1cccc(F)c1F (racemic) [Compound 211] here?
A: Its value is 20.

Q: And the “Plant response rating, Pigweed” value (pigweed; Postemergence, 125 g ai/ha, 0 is no effect, 100 is complete control)?
A: Its value is 0.

Q: And the “Pigweed plant response rating (0 to 100 scale, 0 is no effect, 100 is complete control)” value (pigweed; Postemergence, 500 g ai/ha)?
A: Its value is 50.

Q: And the “Plant response rating, Pigweed” value (pigweed; preemergence, 500 g ai/ha, 0 is no effect and 100 is complete control)?
A: Its value is 70.

Q: And the “Plant response rating, Blackgrass” value (blackgrass; 125 g ai/ha, 0 to 100 scale, 0 is no effect, 100 is complete control)?
A: Its value is 50.

Q: And the “Blackgrass plant response rating (0 to 100 scale, 0 is no effect, 100 is complete control)” value (blackgrass; 500 g ai/ha)?
A: The value was 70.

Q: And the “Galium plant response rating” value (galium; [1])?
A: The value was 5.

Q: What about the “Plant response rating, Galium” value (galium; [2]) of the same compound?
A: Its value is 85.

Q: What about the “Plant response rating (scale of 0 to 100), Galium” value (galium; 250 g ai/ha) of the same compound?
A: The value was 100.

Q: And the “Foxtail, Giant plant response rating” value (foxtail, giant; [3])?
A: Its value is 0.

Q: And the “Foxtail, Giant plant response rating” value (foxtail, giant; [1])?
A: Its value is 70.

Q: And the “Plant response rating, Foxtail, Giant” value (foxtail, giant; [2])?
A: The value was 90.

Q: And the “Plant response rating (scale of 0 to 100), Foxtail, Giant” value (foxtail, giant; 250 g ai/ha)?
A: Its value is 95.

Q: And the “Morningglory plant response rating” value (morningglory; [3])?
A: The value was 0.

Q: And the “Morningglory plant response rating” value (morningglory; [1])?
A: The value was 0.

Q: What about the “Plant response rating, Morningglory” value (morningglory; [2]) of the same compound?
A: Its value is 0.

Q: What about the “Plant response rating (scale of 0 to 100), Morningglory” value (morningglory; 250 g ai/ha) of the same compound?
A: The value was 0.

Q: And the “Plant response rating, Rice” value (rice; [4])?
A: Its value is 0.

Q: What about the “Plant response rating, Rice” value (rice; [5]) of the same compound?
A: The value was 0.

Q: And the “Plant response rating, Rice” value (rice; 500 g ai/ha, scale 0 to 100)?
A: Its value is 15.

Q: And the “Plant response rating, Rice” value (rice; 1000 g ai/ha, scale 0 to 100)?
A: Its value is 15.

Q: What about the “Plant response rating, Barnyardgrass” value (barnyardgrass; [4]) of the same compound?
A: Its value is 0.

Q: What about the “Plant response rating, Barnyardgrass” value (barnyardgrass; [5]) of the same compound?
A: Its value is 50.

Q: What about the “Plant response rating, Barnyardgrass” value (barnyardgrass; 500 g ai/ha, scale 0 to 100) of the same compound?
A: Its value is 55.

Q: What about the “Plant response rating, Barnyardgrass” value (barnyardgrass; 1000 g ai/ha, scale 0 to 100) of the same compound?
A: Its value is 80.
